Values of other authors as cited in patent US20050176010A1, “Regulation of human transient receptor potential channel” (Bayer HealthCare AG, priority 2002, published 2005).

Experiments:
[1] = molecular target: cold- and menthol-sensitive receptor (CMR1) (Rattus norvegicus, UniProt Q8R455); conditions: McKemy et al., Nature 2002
mouse TRPM8 = mouse TRPM8 (Mus musculus, UniProt Q8R4D5); conditions: Peier et al., Cell 2002
cold receptors [2] = conditions: animals; Lindstrom and Mazieres 1991, Mazieres et al. 1998
cold receptors [3] = conditions: all tested patients; Geirsson, J. Urol. 1993

Sequence of mouse TRPM8 (Q8R4D5 whole entry): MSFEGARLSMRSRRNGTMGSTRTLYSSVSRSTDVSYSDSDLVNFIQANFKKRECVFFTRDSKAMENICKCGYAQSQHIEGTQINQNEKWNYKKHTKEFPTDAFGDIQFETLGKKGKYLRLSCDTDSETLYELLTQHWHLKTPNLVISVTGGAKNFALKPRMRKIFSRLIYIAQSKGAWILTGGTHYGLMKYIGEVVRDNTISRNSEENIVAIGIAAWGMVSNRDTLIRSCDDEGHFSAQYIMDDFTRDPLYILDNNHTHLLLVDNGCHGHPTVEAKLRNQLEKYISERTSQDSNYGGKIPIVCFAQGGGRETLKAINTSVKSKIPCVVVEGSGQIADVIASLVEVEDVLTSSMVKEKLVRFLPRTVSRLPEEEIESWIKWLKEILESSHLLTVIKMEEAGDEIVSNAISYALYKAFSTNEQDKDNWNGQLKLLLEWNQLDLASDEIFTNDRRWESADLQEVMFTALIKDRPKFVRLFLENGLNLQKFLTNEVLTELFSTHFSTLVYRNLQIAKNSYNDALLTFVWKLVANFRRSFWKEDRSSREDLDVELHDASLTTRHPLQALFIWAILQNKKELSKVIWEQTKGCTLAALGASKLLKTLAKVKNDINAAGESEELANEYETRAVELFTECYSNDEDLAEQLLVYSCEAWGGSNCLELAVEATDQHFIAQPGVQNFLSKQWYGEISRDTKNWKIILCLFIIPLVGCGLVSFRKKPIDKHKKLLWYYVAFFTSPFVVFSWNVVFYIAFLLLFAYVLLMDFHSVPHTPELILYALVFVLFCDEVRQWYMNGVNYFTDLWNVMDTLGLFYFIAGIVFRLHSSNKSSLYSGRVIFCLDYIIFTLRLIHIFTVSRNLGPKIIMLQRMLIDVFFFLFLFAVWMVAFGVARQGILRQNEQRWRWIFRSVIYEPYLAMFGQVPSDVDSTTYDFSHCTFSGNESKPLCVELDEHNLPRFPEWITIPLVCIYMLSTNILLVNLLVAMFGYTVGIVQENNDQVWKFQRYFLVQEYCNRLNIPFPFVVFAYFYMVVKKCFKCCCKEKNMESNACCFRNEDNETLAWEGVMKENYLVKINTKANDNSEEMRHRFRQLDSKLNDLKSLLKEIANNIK
Sequence of cold- and menthol-sensitive receptor (CMR1) (Q8R455 whole entry): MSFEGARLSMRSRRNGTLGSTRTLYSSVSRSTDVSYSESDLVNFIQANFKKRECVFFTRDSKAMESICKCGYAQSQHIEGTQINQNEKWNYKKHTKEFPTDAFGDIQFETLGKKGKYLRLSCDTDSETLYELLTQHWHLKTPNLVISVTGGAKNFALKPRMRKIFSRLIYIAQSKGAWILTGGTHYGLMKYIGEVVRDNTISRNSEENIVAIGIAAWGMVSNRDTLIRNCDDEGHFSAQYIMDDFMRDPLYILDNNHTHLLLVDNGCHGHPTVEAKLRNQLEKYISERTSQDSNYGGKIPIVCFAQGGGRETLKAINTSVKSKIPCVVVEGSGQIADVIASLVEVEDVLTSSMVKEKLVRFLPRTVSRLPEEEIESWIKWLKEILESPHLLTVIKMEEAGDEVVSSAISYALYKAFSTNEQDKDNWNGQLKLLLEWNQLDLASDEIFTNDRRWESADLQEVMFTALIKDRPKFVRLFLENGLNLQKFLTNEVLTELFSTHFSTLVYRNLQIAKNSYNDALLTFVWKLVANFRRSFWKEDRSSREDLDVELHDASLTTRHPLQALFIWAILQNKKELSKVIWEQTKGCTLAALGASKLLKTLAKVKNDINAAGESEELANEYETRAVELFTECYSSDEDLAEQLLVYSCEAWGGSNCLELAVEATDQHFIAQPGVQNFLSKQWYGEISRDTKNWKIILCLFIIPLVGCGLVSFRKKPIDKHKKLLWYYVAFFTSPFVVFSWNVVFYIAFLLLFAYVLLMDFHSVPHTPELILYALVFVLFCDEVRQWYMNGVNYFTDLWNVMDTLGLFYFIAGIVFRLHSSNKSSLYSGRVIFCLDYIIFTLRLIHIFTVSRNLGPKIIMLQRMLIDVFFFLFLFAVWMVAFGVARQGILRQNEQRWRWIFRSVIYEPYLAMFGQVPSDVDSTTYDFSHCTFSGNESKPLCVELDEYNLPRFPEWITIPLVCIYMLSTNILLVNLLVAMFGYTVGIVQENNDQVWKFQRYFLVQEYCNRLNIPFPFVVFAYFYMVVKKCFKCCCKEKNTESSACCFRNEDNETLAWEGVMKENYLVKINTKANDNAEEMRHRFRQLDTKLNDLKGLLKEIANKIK

## CC1CCC(C(C)C)C(O)C1 (stereo not shown) [menthol]
[1]
  activation of the channel receptor CMR1: activated
Mouse TRPM8
  gating of the ion channel: gated by cold stimuli and menthol
Cold receptors [2]
  temperature response curve of the bladder cooling reflex: shifts the temperature response curve of the bladder cooling reflex towards higher temperatures
Cold receptors [3]
  threshold temperature of the cooling reflex: shift of the threshold temperature of the cooling reflex towards a higher value
